# Like-named read-outs stand apart in the source and are kept apart here. Starred links: 1 amine or outer side, 2 acyl side, 3 side chain; linkers in the order of their positions; H or OH if unused. Positions of bridges follow the written chain, without caps; N, C: chain ends. Non-standard residues stand in square brackets, D forms with d. Residues, ends and D or L forms follow the SMILES beside them. Groups on a side chain read outwards from the residue. *: point of attachment. X2 = O=C(O)CN1CCN(CC(=O)O)CCN(CC(=O)NCCOCCOCCOCCOCC(=O)*)CCN(CC(=O)O)CC1; Ala(piperidin-4-yl) = O=C([C@H](CC1CCN([*:3])CC1)N[*:1])[*:2]; DOTA = O=C(O)CN1CCN(CC(=O)O)CCN(CC(=O)*)CCN(CC(=O)O)CC1; Phe(4-NHCONH2) = NC(=O)Nc1ccc(C[C@H](N)C(=O)O)cc1; Trp(5-F) = N[C@@H](Cc1c[nH]c2ccc(F)cc12)C(=O)O; X1 = C[C@@H](c1ccccc1)[C@H](N[*:1])C(=O)[*:2]; γGlu = O=C(O)[C@H](CCC(=O)[*:2])N[*:1]; 1Nal = N[C@@H](Cc1cccc2ccccc12)C(=O)O; Ala(4-THP) = N[C@@H](CC1CCOCC1)C(=O)O; X3 = O=C([C@H](CCC1CCC1)N[*:1])[*:2]; Val(3-OH) = CC(C)(O)[C@H](N)C(=O)O; 4Pal = N[C@@H](Cc1ccncc1)C(=O)O; Cha = N[C@@H](CC1CCCCC1)C(=O)O; aThr = C[C@H](O)[C@H](N)C(=O)O; PEG4 = NCCOCCOCCOCCOCCC(=O)O; Tle = CC(C)(C)[C@H](N)C(=O)O; hLeu = CC(C)CC[C@H](N)C(=O)O
# Columns and labels:
# [1] = test system: Calu-6 cell line; test: Net internalization of [177Lu]Lu-labeled peptide in Calu-6 cells; format: cell-based, Human; details: 1 hour, 37° C., glycine pH 2.5 acid wash
# In short: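 Calu-6 cells, human non-engineered lung cancer expressing B7-H3, resuspended in 1% PBSA at 5 million cells/mL and incubated with the 177Lu-labeled conjugate (labeled at 80 °C, pH ~5, RP-HPLC checked). Gamma counting of the bound fraction, then of the pellet after two glycine pH 2.5 acid strips and NaOH lysis, gives internalized activity.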
# [2] = test system: Calu-6 cell line; test: Cell associated (bound) fraction of [177Lu]Lu-labeled peptide in Calu-6 cells; format: cell-based, Human; details: 1 hour, 37° C.
# In short: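 Detached B7-H3-expressing human lung cancer cells at 5 million/mL were exposed for 1 hour at 37 °C to 0.8 μCi of the 177Lu-labelled peptide, which was formulated in 1% PBSA after labelling at 80 °C, pH ~5. Supernatant and two cold washes counted as unbound, and resuspended cells gamma-counted as the cell-associated fraction.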
# [3] = molecular target: T1, human 4lg B7-H3 (Homo sapiens, UniProt Q5ZPR3); test: Affinity determination by surface plasmon resonance (SPR) to 4Ig B7-H3; details: 4Ig B7-H3
# T1 sequence (Q5ZPR3 29-534): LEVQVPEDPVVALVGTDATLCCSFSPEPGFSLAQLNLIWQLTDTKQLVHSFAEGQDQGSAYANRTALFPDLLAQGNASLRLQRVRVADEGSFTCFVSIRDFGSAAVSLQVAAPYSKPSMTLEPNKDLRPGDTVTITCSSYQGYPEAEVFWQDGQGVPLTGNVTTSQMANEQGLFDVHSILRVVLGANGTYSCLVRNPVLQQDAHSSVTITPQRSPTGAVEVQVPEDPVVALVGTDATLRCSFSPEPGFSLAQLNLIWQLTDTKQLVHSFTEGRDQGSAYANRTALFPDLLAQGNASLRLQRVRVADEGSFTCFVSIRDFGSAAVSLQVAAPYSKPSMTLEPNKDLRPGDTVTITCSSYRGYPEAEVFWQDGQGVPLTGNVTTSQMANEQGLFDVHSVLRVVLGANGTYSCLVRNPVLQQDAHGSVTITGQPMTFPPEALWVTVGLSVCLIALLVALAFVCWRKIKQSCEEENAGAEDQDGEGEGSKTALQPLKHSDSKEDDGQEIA
# [4] = read-out: SPR KD—37° C., 37° C. flow cell temperature
# [5] = SPR KD—25° C., 25° C. flow cell temperature
# [6] = read-out: SPR KD—25° C., 25° C. flow cell temperature
Structure (SMILES),% net internalization [1],% cell associated fraction [2],"Kd [3, 4]","Kd [3, 5]","Kd [3, 6]","Kd ([3]; SPR KD—37° C., 37° C. flow cell temperature)"
"CC(=O)N[C@@H](CCC1CCC1)C(=O)N[C@@H](Cc1ccc(O)cc1)C(=O)N[C@H]1CSSC[C@@H](C(=O)N[C@@H](Cc2c[nH]c3ccc(F)cc23)C(=O)N[C@@H](Cc2ccccc2)C(=O)N[C@H](C(=O)N[C@H](CCCCNC(=O)CN2CCN(CC(=O)O)CCN(CC(=O)O)CCN(CC(=O)O)CC2)C(=O)O)C(C)(C)O)NC(=O)[C@H](Cc2ccc(O)cc2)NC(=O)[C@H](C(C)C)NC(=O)[C@H](CC(=O)O)NC(=O)[C@H](CC2CCOCC2)NC(=O)[C@H](CCCCN)NC(=O)CNC(=O)[C@H](C(C)(C)C)NC1=O [compound 398, Ac-hCba-Y-C-Tbg-G-K-ThpA-D-V-Y-C-5FW-F-hydroxyVal-dLys(DOTA)-COOH] (Ac-[X3]YC[Tle]GK[Ala(4-THP)]DVYC[Trp(5-F)]F[Val(3-OH)][dK](DOTA)-OH; disulfide 3-11)",A (%≤25),B (25<%≤50),< 1 nM,,,
"CC(=O)N[C@@H](CCC(C)C)C(=O)N[C@@H](Cc1ccc(O)cc1)C(=O)N[C@H]1CSSC[C@@H](C(=O)N[C@@H](Cc2cccc3ccccc23)C(=O)N[C@@H](Cc2ccccc2)C(=O)N2CCC[C@H]2C(N)=O)NC(=O)[C@H](Cc2ccc(O)cc2)NC(=O)[C@H](C(C)C)NC(=O)[C@H](CC(=O)O)NC(=O)[C@H](Cc2ccncc2)NC(=O)[C@H](CCCCNC(=O)COCCOCCOCCOCCNC(=O)CN2CCN(CC(=O)O)CCN(CC(=O)O)CCN(CC(=O)O)CC2)NC(=O)CNC(=O)[C@H](C(C)(C)C)NC1=O [compound 256, Ac-hLeu-Y-C-Tbg-G-Lys(PEG4-DOTA)-4PyA-D-V-Y-C-1Nal-F-Pro-CONH2] (Ac-[hLeu]YC[Tle]GK(X2)[4Pal]DVYC[1Nal]FP-NH2; disulfide 3-11)",A (%≤25),A (%≤25),,1 to 10 nM,,
"CC(=O)N[C@@H](CCC(C)C)C(=O)N[C@@H](Cc1ccc(O)cc1)C(=O)N[C@H]1CSSC[C@@H](C(=O)N[C@@H](Cc2c[nH]c3ccc(F)cc23)C(=O)N[C@@H](Cc2ccccc2)C(=O)N[C@H](C(=O)N[C@H](CCCCNC(=O)CN2CCN(CC(=O)O)CCN(CC(=O)O)CCN(CC(=O)O)CC2)C(N)=O)[C@H](C)O)NC(=O)[C@H](Cc2ccc(O)cc2)NC(=O)[C@H](C(C)C)NC(=O)[C@H](CC(=O)O)NC(=O)[C@H](Cc2ccc(O)cc2)NC(=O)[C@H](CCCCN)NC(=O)CNC(=O)[C@H](C(C)C)NC1=O [compound 162, Ac-hLeu-Y-C-V-G-K-Y-D-V-Y-C-5FW-F-alloThr-dLys(DOTA)-CONH2] (Ac-[hLeu]YCVGKYDVYC[Trp(5-F)]F[aThr][dK](DOTA)-NH2; disulfide 3-11)",A (%≤25),B (25<%≤50),,,< 1 nM,
"CC(=O)N[C@@H](CCC(C)C)C(=O)N[C@@H](Cc1ccc(O)cc1)C(=O)N[C@H]1CSSC[C@@H](C(=O)N[C@@H](Cc2c[nH]c3ccc(F)cc23)C(=O)N[C@@H](Cc2ccccc2)C(=O)N[C@H](C(=O)N[C@H](CCCCNC(=O)CN2CCN(CC(=O)O)CCN(CC(=O)O)CCN(CC(=O)O)CC2)C(=O)O)C(C)(C)O)NC(=O)[C@H](Cc2ccc(NC(N)=O)cc2)NC(=O)[C@H](C(C)C)NC(=O)[C@H](CC(=O)O)NC(=O)[C@H](CC2CCOCC2)NC(=O)[C@H](CC2CCNCC2)NC(=O)CNC(=O)[C@H](C(C)(C)C)NC1=O [compound 427, Ac-hLeu-Y-C-Tbg-G-PipAla-ThpA-D-V-Aph(Cbm)-C-5FW-F-hydroxyVal-dLys(DOTA)-COOH] (Ac-[hLeu]YC[Tle]G[Ala(piperidin-4-yl)][Ala(4-THP)]DV[Phe(4-NHCONH2)]C[Trp(5-F)]F[Val(3-OH)][dK](DOTA)-OH; disulfide 3-11)",B (25<%≤50),C (%>50),< 1 nM,,,
"CC(=O)N[C@@H](CCC(C)C)C(=O)N[C@@H](Cc1ccc(O)cc1)C(=O)N[C@H]1CSSC[C@@H](C(=O)N[C@@H](Cc2c[nH]c3ccc(F)cc23)C(=O)N[C@@H](Cc2ccccc2)C(=O)N[C@H](C(=O)N[C@H](CCCCNC(=O)CN2CCN(CC(=O)O)CCN(CC(=O)O)CCN(CC(=O)O)CC2)C(N)=O)C(C)(C)O)NC(=O)[C@H](Cc2ccc(O)cc2)NC(=O)[C@H](C(C)C)NC(=O)[C@H](CC(=O)O)NC(=O)[C@H](CC2CCCCC2)NC(=O)[C@H](CC2CCNCC2)NC(=O)CNC(=O)[C@H](C(C)C)NC1=O [compound 227, Ac-hLeu-Y-C-V-G-PipAla-CHA-D-V-Y-C-5FW-F-hydroxyVal-dLys(DOTA)-CONH2] (Ac-[hLeu]YCVG[Ala(piperidin-4-yl)][Cha]DVYC[Trp(5-F)]F[Val(3-OH)][dK](DOTA)-NH2; disulfide 3-11)",B (25<%≤50),C (%>50),,,< 1 nM,
"CC(=O)N[C@@H](CCC(C)C)C(=O)N[C@@H](Cc1ccc(O)cc1)C(=O)N[C@H]1CSSC[C@@H](C(=O)N[C@@H](Cc2c[nH]c3ccc(F)cc23)C(=O)N[C@@H](Cc2ccccc2)C(=O)N2CCC[C@H]2C(=O)N[C@H](CCCCNC(=O)COCCOCCOCCOCCNC(=O)CN2CCN(CC(=O)O)CCN(CC(=O)O)CCN(CC(=O)O)CC2)C(N)=O)NC(=O)[C@H](Cc2ccc(O)cc2)NC(=O)[C@H](C(C)C)NC(=O)[C@H](CC(=O)O)NC(=O)[C@H](CC2CCOCC2)NC(=O)[C@H](CCCCN)NC(=O)CNC(=O)[C@H](C(C)C)NC1=O [compound 282, Ac-hLeu-Y-C-V-G-K-ThpA-D-V-Y-C-5FW-F-Pro-dLys(PEG4-DOTA)-CONH2] (Ac-[hLeu]YCVGK[Ala(4-THP)]DVYC[Trp(5-F)]FP[dK](X2)-NH2; disulfide 3-11)",A (%≤25),B (25<%≤50),,< 1 nM,,
"CC(=O)N[C@@H](CCC(C)C)C(=O)N[C@@H](Cc1ccc(O)cc1)C(=O)N[C@H]1CSSC[C@@H](C(=O)N[C@@H](Cc2c[nH]c3ccc(F)cc23)C(=O)N[C@H](C(=O)N[C@H](C(=O)N[C@H](CCCCNC(=O)CN2CCN(CC(=O)O)CCN(CC(=O)O)CCN(CC(=O)O)CC2)C(=O)O)C(C)(C)O)[C@@H](C)c2ccccc2)NC(=O)[C@H](Cc2ccc(O)cc2)NC(=O)[C@H](C(C)C)NC(=O)[C@H](CC(=O)O)NC(=O)[C@H](CC2CCOCC2)NC(=O)[C@H](CC2CCNCC2)NC(=O)CNC(=O)[C@H](C(C)(C)C)NC1=O [compound 433, Ac-hLeu-Y-C-Tbg-G-PipAla-ThpA-D-V-Y-C-5FW-[(2S, 3S)beta-Me-Phe]-hydroxyVal-dLys(DOTA)-COOH] (Ac-[hLeu]YC[Tle]G[Ala(piperidin-4-yl)][Ala(4-THP)]DVYC[Trp(5-F)][X1][Val(3-OH)][dK](DOTA)-OH; disulfide 3-11)",B (25<%≤50),C (%>50),,,,< 1 nM
"CC(=O)N[C@@H](CCC(C)C)C(=O)N[C@@H](Cc1ccc(O)cc1)C(=O)N[C@H]1CSSC[C@@H](C(=O)N[C@@H](Cc2c[nH]c3ccc(F)cc23)C(=O)N[C@@H](Cc2ccccc2)C(=O)N[C@H](C(N)=O)C(C)(C)O)NC(=O)[C@H](Cc2ccc(O)cc2)NC(=O)[C@H](C(C)C)NC(=O)[C@H](CC(=O)O)NC(=O)[C@H](CC2CCN(C(=O)CCOCCOCCOCCOCCNC(=O)CN3CCN(CC(=O)O)CCN(CC(=O)O)CCN(CC(=O)O)CC3)CC2)NC(=O)[C@H](CCCCN)NC(=O)CNC(=O)[C@H](C(C)(C)C)NC1=O [compound 383, Ac-hLeu-Y-C-Tbg-G-K-Pip(PEG4-DOTA)Ala-D-V-Y-C-5FW-F-hydroxyVal-CONH2] (Ac-[hLeu]YC[Tle]GK[Ala(piperidin-4-yl)]([PEG4-DOTA])DVYC[Trp(5-F)]F[Val(3-OH)]-NH2; disulfide 3-11)",B (25<%≤50),B (25<%≤50),< 1 nM,,,
"CC(=O)N[C@@H](CCC(C)C)C(=O)N[C@@H](Cc1ccc(O)cc1)C(=O)N[C@H]1CSSC[C@@H](C(=O)N[C@@H](Cc2cccc3ccccc23)C(=O)N[C@@H](Cc2ccccc2)C(=O)N2CCC[C@H]2C(N)=O)NC(=O)[C@H](Cc2ccc(O)cc2)NC(=O)[C@H](C(C)C)NC(=O)[C@H](CC(=O)O)NC(=O)[C@H](Cc2ccncc2)NC(=O)[C@H](CCCCNC(=O)CC[C@H](NC(=O)CN2CCN(CC(=O)O)CCN(CC(=O)O)CCN(CC(=O)O)CC2)C(=O)O)NC(=O)CNC(=O)[C@H](C(C)(C)C)NC1=O [compound 252, Ac-hLeu-Y-C-Tbg-G-Lys(gE-DOTA)-4PyA-D-V-Y-C-1Nal-F-Pro-CONH2] (Ac-[hLeu]YC[Tle]GK([γGlu-DOTA])[4Pal]DVYC[1Nal]FP-NH2; disulfide 3-11)",A (%≤25),B (25<%≤50),,1 to 10 nM,,

# — US20250296959A1, “B7-H3 TARGETING PEPTIDES AND CONSTRUCTS THEREOF” (Mariana Oncology Inc., priority 2024, published 2025)
